Patent publication US20230059009A1, “INHIBITORS OF LIN28 AND METHODS OF USE THEREOF” (The Regents of the University of California, priority 2019, published 2023)

Assays:
LSCs = assay: Colony forming capacity (CFC) of iMLL-AF9 LT-HSC derived LSCs; assay type: cell-based, mouse; conditions: 200 nM Ara-C or 30 μM 1632, 48 h
From the text: In addition, Lin28 was independently found to be a key driver in MLL-associated leukemias (56). In order to further characterize the role of Lin28/let-7 in regulating AML, LSC proliferation and therapy resistance in vivo, we used a doxycycline (DOX) inducible, transgenic mouse model for MLL-AF9-driven AML (iMLL-AF9 (57)). In this model, long-term HSC (LT-HSC, Lin^−CD34^−[…] c-Kit^+ CD150^+ CD48^−) derived AML blasts closely mirror an LSC-like phenotype resulting in a particularly aggressive, Cytarabine (Ara-C) resistant AML (57). […] Moreover, relapsed AML cells arising from rLSCs after treatment with Ara-C (100 mg/kg) at d+60 were even further enriched in Lin28b expression (FIG. 2B). Additionally, levels of both, let-7a and let-7b miRNAs, negatively correlated with increased Lin28b in rLSCs (FIG. 2C) (10, 39). Our findings are consistent with papers reporting that increased Lin28 correlates with disease recurrence post chemotherapy in colon and liver cancer stem cells (22, 58).
As Lin28 is overexpressed human AML, LSCs and rLSCs, we sought to determine if genetic Lin28b or pharmacologic Lin28/let-7 inhibition via LN1632 can abrogate proliferation of LSCs and thus overcome their therapy resistance. […]

ASPC-1 = assay: Cell viability, CTG, ASPC-1; assay type: cell-based; conditions: Homo sapiens, ASPC1, ASPC-1 (Pancreatic)
Experimental: (§1) To measure cell viability, cell titer glow (CTG, Promega CellTiter-Glo 2.0 Assay) and MTT assays (SigmaAldrich, Cell Proliferation Kit I) were performed. Briefly, cells were serum starved overnight prior to seeding in 96-well plates. Following 24 h incubation, cells were treated with increasing concentrations of JGJ compounds for 96 hr. At assay read-out, CellTiter-Glo reagent was added and luminescence was measured after 10-minutes incubation at room temperature. For the MTT assay, MTT labeling reagent was added and incubated for 4 h. Subsequently, medium was removed and 50 μL DMSO was added to solubilize the crystals, and absorbance was measured at 570 nm. Cell viability was calculated as (Sample-Background)/(Control-Background). Current standard of care drugs, Enzalutamide, Palbociclib and Cetuximab were used as comparative controls.

22RV1 [1] = assay: Cell viability, CellTiter-Glo (CTG), 22RV1; assay type: cell-based; conditions: Homo sapiens, 22RV1 (Prostate), 96 hr
Experimental: as §1, with “(Sample-Background)/(Control-Background).” for “(Sample-Background)/(Control-Background). Current standard of care drugs, Enzalutamide, Palbociclib and Cetuximab were used as comparative controls.”

MYC-driven cancers = assay: Cell viability and cell counting assays in cancer cells; assay type: cell-based; conditions: TNBC, CRPC, lung and colorectal adenocarcinoma cells
Experimental: To test whether LN1632 and novel analogs thereof affect cancer cell growth, cell viability and cell counting assays in TNBC (FIG. 14B-D), castration resistant prostate cancer cells (CRPC, FIG. 15A-C) and colorectal cancer cells (CRC, FIG. 15A-C) were performed.
as §1

SW480 [2] = assay: Cell viability, CTG, SW480; assay type: cell-based; conditions: Homo sapiens, SW480 (Colon)
Experimental: as §1, with “(Sample-Background)/(Control-Background).” for “(Sample-Background)/(Control-Background). Current standard of care drugs, Enzalutamide, Palbociclib and Cetuximab were used as comparative controls.”

CYP 1A2 = biological target: T1, CYP 1A2 (Homo sapiens, UniProt P05177); assay: CYP inhibition 1A2; assay type: in vitro ADME; design: unit not given here; conditions: Conc. 10 uM
T1 sequence (P05177 1-516): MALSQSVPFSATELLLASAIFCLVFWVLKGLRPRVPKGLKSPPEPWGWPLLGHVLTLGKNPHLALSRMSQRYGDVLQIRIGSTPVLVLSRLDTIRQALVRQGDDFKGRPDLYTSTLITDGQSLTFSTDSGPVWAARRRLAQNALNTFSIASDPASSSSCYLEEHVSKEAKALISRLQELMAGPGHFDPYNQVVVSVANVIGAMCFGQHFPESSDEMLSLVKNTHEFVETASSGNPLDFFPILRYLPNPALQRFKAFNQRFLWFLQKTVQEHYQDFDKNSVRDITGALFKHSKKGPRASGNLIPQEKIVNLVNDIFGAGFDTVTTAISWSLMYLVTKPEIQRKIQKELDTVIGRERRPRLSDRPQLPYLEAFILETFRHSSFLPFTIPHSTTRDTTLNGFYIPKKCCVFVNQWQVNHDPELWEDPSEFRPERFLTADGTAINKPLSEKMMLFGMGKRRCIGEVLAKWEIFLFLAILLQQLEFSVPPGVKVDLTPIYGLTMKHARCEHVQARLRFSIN

Caco2 permeability = assay type: in vitro ADME; conditions: human, Caco-2, Conc. 5 uM
MCF7 [3] = assay: Cell viability, CTG, MCF7; assay type: cell-based; conditions: Homo sapiens, MCF7 (Breast)
Experimental: as §1

HCT-116 = assay: Cell viability, CTG, HCT-116; assay type: cell-based; conditions: Homo sapiens, HCT-116 (Colon)
Experimental: as §1

[4] = Microsomal stability, CD-1 Mouse; assay type: in vitro ADME; conditions: Conc. 5 uM
CYP 2C8 = biological target: T2, CYP 2C8 (Homo sapiens, UniProt P10632); assay: CYP inhibition 2C8; assay type: in vitro ADME; design: unit not given here; conditions: Conc. 10 uM
T2 sequence (P10632 1-490): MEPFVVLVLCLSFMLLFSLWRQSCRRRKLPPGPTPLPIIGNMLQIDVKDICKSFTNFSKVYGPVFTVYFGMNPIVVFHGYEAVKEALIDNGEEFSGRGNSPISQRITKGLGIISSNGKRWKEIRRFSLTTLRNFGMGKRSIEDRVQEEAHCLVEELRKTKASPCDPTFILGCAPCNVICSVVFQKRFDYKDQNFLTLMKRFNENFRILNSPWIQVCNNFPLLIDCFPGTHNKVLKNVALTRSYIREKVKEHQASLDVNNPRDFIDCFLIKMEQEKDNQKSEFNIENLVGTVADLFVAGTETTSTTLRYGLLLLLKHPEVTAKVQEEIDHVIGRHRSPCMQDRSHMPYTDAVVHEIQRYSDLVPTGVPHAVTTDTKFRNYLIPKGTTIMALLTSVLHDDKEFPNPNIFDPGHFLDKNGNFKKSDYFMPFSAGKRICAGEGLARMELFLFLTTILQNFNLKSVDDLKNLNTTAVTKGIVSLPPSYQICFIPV

22RV1 [5] = assay: Cell viability, MTT assay, 22RV1; assay type: cell-based; conditions: Homo sapiens, 22RV1 (Prostate), 96 hr
Experimental: as §1, with “(Sample-Background)/(Control-Background).” for “(Sample-Background)/(Control-Background). Current standard of care drugs, Enzalutamide, Palbociclib and Cetuximab were used as comparative controls.”

SW480 [6] = assay: Cell viability, MTT assay, SW480; assay type: cell-based; conditions: Homo sapiens, SW480 (Colon)
Experimental: as §1

CYP 2C19 = CYP 2C19 (Homo sapiens, UniProt P33261); assay: CYP inhibition 2C19; assay type: in vitro ADME; design: unit not given here; conditions: Conc. 10 uM
Chain of CYP 2C19 (P33261 whole entry): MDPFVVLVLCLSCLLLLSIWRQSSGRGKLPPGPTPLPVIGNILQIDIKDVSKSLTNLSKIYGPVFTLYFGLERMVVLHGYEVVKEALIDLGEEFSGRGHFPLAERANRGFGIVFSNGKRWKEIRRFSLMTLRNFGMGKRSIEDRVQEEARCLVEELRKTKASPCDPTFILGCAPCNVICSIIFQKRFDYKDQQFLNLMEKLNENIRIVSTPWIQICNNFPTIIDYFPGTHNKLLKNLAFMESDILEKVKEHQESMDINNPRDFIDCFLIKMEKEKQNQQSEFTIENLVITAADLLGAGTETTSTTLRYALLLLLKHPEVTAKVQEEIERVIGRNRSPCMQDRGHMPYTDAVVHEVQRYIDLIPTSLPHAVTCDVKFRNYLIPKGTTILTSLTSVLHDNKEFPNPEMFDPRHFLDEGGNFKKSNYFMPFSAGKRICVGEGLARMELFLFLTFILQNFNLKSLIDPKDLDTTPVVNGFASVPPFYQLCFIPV

[7] = Microsomal stability, Human; assay type: in vitro ADME; conditions: Conc. 5 uM
CYP 2C9 = CYP 2C9 (Homo sapiens, UniProt P11712); assay: CYP inhibition 2C9; assay type: in vitro ADME; design: unit not given here; conditions: Conc. 10 uM
Chain of CYP 2C9 (P11712 whole entry): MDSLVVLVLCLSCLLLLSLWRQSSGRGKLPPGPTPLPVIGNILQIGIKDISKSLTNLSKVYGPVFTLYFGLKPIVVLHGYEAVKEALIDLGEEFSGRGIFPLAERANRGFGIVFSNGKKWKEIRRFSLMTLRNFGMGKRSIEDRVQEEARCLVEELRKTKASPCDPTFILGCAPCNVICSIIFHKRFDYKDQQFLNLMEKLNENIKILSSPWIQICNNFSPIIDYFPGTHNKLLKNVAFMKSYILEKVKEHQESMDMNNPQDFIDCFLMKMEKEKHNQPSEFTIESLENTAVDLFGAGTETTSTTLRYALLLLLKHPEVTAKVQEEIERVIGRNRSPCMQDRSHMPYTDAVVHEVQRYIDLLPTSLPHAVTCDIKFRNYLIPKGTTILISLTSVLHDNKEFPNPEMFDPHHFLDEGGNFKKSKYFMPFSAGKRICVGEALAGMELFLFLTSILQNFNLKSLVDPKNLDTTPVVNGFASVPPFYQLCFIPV

CYP 2D6 = CYP 2D6 (Homo sapiens, UniProt P10635); assay: CYP inhibition 2D6; assay type: in vitro ADME; design: unit not given here; conditions: Conc. 10 uM
Chain of CYP 2D6 (P10635 whole entry): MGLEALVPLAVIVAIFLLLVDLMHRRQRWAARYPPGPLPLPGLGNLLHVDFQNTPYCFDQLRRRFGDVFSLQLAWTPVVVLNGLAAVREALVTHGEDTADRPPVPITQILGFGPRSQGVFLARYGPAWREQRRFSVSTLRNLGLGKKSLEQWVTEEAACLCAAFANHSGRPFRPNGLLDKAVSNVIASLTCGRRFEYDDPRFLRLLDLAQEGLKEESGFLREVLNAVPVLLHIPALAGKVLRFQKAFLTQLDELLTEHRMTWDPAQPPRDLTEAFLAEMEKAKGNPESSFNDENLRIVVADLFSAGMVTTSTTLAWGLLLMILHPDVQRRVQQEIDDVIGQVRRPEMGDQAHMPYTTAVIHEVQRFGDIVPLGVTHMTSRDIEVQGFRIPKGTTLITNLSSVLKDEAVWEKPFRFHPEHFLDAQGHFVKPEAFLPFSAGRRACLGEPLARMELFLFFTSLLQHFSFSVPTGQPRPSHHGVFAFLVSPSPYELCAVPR

CAPAN-1 = assay: Cell viability, CTG, CAPAN-1; assay type: cell-based; conditions: Homo sapiens, CAPAN-1 (Pancreatic)
Experimental: as §1

MDA-MB231 = assay: Cell viability, CTG, MDA-MB231; assay type: cell-based; conditions: Homo sapiens, MDA-MB-231, MDA-MB231 (Breast)
Experimental: as §1

SW620 [8] = assay: Cell viability, MTT assay, SW620; assay type: cell-based; conditions: Homo sapiens, SW-620, SW620 (Colon)
Experimental: as §1

SW620 [9] = assay: Cell viability, CTG, SW620; assay type: cell-based; conditions: Homo sapiens, SW-620, SW620 (Colon)
Experimental: as §1

CYP 2B6 = biological target: T3, CYP 2B6 (Homo sapiens, UniProt P20813); assay: CYP inhibition 2B6; assay type: in vitro ADME; design: unit not given here; conditions: Conc. 10 uM
T3 sequence (P20813 1-491): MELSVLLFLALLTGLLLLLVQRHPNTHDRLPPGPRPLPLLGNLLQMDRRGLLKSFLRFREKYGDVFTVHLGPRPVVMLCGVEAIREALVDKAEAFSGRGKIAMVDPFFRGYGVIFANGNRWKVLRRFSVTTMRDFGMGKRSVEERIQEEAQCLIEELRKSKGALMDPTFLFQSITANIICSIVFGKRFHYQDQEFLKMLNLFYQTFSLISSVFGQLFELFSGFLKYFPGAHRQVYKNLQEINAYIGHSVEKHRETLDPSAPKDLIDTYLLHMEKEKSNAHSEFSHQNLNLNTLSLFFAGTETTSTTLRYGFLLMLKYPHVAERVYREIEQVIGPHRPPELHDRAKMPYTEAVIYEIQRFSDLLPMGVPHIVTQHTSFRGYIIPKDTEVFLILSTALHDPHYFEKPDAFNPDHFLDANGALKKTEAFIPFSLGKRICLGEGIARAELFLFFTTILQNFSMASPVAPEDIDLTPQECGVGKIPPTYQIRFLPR

MCF7 [10] = assay: Cell viability, MTT assay, MCF7; assay type: cell-based; conditions: Homo sapiens, MCF7 (Breast)
Experimental: as §1

BT-549 = assay: Cell viability, MTT assay, BT-549; assay type: cell-based; conditions: Homo sapiens, BT-549 (Breast)
Experimental: as §1

[11] = microsomes, read-out: Microsomal stability T½

Structure (SMILES): Nc1ccn([C@@H]2O[C@H](CO)[C@@H](O)[C@@H]2O)c(=O)n1 [Ara-C, Cytarabine]
- Colony forming capacity cell numbers (CFCs) of LSCs (LSCs): did not alter colony forming capacity cell numbers (CFCs)

Structure (SMILES): CC(=O)Nc1cc(F)cc(-c2ccc3[nH]cc(-c4ccccc4)c3n2)c1 [JGJ037, N-(3-Fluoro-5-(3-phenyl-1H-pyrrolo[3,2-b]pyridin-5-yl)phenyl)acetamide]
- IC50 (ASPC-1): 31 µM
- IC50 (22RV1 [1]): 3 µM
- Proliferation and apoptosis of cancer cells (MYC-driven cancers): reduced proliferation and induced apoptosis preferentially in MYC-driven cancers
- IC50 (SW480 [2]): 39 µM
- CYP inhibition 1A2 (CYP 1A2): 88.9
- Papp A→B at 5 uM (Caco2 permeability): 0.44 ×10⁻⁶ cm/s
- Papp B→A at 5 uM (Caco2 permeability): 1.69 ×10⁻⁶ cm/s
- efflux ratio at 5 uM (Caco2 permeability): 3.9
- recovery at 5 uM (Caco2 permeability; read-out: Caco2 Mean A-B % Recovery): 47%
- IC50 (MCF7 [3]): 15 µM
- IC50 (HCT-116): 76 µM
- Microsomal stability % Remaining at T30 [4]: T30 = 78.6%
- microsomal CLint at 5 uM ([4]; microsomes): 14.9 µL/min/mg
- half-life at 5 uM [4, 11]: 1.55 h
- CYP inhibition 2C8 (CYP 2C8): 90.5
- IC50 (22RV1 [5]): 2 µM
- IC50 (SW480 [6]): 26 µM
- CYP inhibition 2C19 (CYP 2C19): 98.3
- Microsomal stability % Remaining at T30 [7]: T30 = 91.2%
- microsomal CLint at 5 uM ([7]; microsomes): 11.6 µL/min/mg
- half-life at 5 uM [7, 11]: > 2 h
- CYP inhibition 2C9 (CYP 2C9): 86.6
- CYP inhibition 2D6 (CYP 2D6): 93.9
- IC50 (CAPAN-1): 22 µM
- IC50 (MDA-MB231): 11 µM
- IC50 (SW620 [8]): 8.5 µM
- IC50 (SW620 [9]): 15 µM
- CYP inhibition 2B6 (CYP 2B6): 69.6

Structure (SMILES): CC(=O)c1c(C)c2cnc(Nc3ccc(N4CCNCC4)cn3)nc2n(C2CCCC2)c1=O [Palbociclib, reference compound]
- IC50 (MCF7 [3]): 32 µM
- IC50 (MCF7 [10]): 5 µM
- IC50 (BT-549): 72 µM
- IC50 (MDA-MB231): 13 µM
